Measured values as given in BindingDB's records for doi:10.1016/j.bmcl.2008.12.086 (Columbia University, 2009).
pEC50: −log10 of the molar value.

Legend:
[1] = target: T1, Transcription factor p65 (Human, UniProt Q04206); experiment: Potentiation of TNF-alpha-induced NF-kappaB p65 nuclear translocation in HUVEC cells by immunostaining
[2] = target: T1, Transcription factor p65; experiment: Induction of NF-kappaB p65 nuclear translocation in HUVEC cells by immunostaining

T1 sequence (Q04206 whole entry): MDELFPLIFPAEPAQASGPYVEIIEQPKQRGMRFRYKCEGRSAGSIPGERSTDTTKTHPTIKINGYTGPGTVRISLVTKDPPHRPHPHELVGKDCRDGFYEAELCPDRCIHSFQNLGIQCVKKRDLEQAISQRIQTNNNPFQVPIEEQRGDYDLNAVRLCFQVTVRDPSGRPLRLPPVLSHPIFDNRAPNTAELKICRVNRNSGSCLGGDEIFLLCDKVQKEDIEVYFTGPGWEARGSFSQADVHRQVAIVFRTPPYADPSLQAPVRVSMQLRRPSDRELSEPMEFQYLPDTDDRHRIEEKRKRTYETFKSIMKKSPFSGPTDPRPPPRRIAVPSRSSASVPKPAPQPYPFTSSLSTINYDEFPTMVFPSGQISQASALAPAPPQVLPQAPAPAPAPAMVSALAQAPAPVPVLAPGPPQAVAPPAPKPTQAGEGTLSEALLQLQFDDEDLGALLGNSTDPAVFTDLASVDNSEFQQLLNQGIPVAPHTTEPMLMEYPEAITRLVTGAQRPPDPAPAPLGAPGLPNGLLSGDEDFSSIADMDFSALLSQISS

Row | pEC50 [1] | pEC50 [2] | Structure (SMILES)
1 | 6.42 | 5.80 | COc1cccc2nc(-c3cccs3)nc(NN3C(=O)C=C(C)C3=O)c12 [1-(5-Methoxy-2-thiophen-2-yl-quinazolin-4-ylamino)-3-methyl-pyrrole-2,5-dione]
2 | 4.38 | 5.01 | COc1ccc2nc(-c3cccs3)nc(NN3C(=O)C=C(C)C3=O)c2c1 [1-(6-methoxy-2-(thiophen-2-yl)quinazolin-4-ylamino)-3-methyl-1H-pyrrole-2,5-dione]
3 | 6.51 | 5.62 | COc1ccc(Cl)c2nc(-c3cccs3)nc(NN3C(=O)C=C(C)C3=O)c12 [1-(8-chloro-5-methoxy-2-(thiophen-2-yl)quinazolin-4-ylamino)-3-methyl-1H-pyrrole-2,5-dione]
